Experimental data as given in patent US20250248393A1, “METHOD OF RELEASING A SEMIOCHEMICAL IN THE ENVIRONEMENT BY PASSIVE DIFFUSION, SYSTEM AND MEANS, ESPECIALLY STICKS, TO THIS END, AND USES THEREOF” (SIGNS, priority 2024, published 2025).

What was measured:
Type in all cases: physicochemical
[1] = Pheromone migrated to the stick tips (GC/FID); conditions: on stick tips, despecified pheromone
Experimental: In the course of this study, we also measured the amount of pheromone migrating on the sticks, to check that the pheromone had migrated to the top of the sticks, helping it to diffuse into the air. To do this, the test is the same as for the diffuser blocks: 2.5 g of stick tips are cut off and placed in a 50 mL flask, which is then placed in an ultrasonic bath for one hour. The resulting solution is filtered (to avoid injecting particles into the instrument) and placed in a chromatographic vial for analysis.

[2] = Indirect assay of diffuser blocks (GC/FID, pheromone remaining in the block); conditions: despecified pheromone
Experimental: Analyses were carried out using the gas chromatography (GC) technique with a flame ionization detector (FID), commonly known as GC/FID. The instrument used was the Shimadzu GC2025.® • Injection: Quantity injected: 1 μL, split 50:1, temperature: 230° C. • Separation: DB-WAX column (Agilent), length: 20 m, diameter: 180 μm, film thickness: […] • Carrier gas: Helium (He) • Analysis time: 11.50 min (not including time to return to equilibrium between each analysis) injection). • Detection: FID, temperature: 250° C., flow rates: H2: 40 mL/min, Air: 400 mL/min, Nitrogen (make-up): 30 mL/min. To obtain a representative sample, “cores” were drilled at various positions in the block and then collected. 2.5 g of gel were weighed into a 50 mL volumetric flask and the volume made up to the beginning of the neck of the flask with acetone. The flask was then placed in an ultrasonic bath for one hour until the block was dissolved (a white precipitate was obtained), then acetone was added to the mark. An aliquot of this solution was placed in a syringe fitted with a syringe filter and filtered to obtain a translucent solution. The resulting solution was transferred to a 1.5 mL GC vial for analysis. The assays were carried out using a calibration range.

[3] = F3 direct diffusion and mass loss, 40 mL and eight sticks with a refill; conditions: F3, eight sticks
Experimental: To that purpose, three devices containing 40 mL of F3 feline facial pheromone product and eight rattan sticks were prepared and left on diffusion. Every Monday, Wednesday and Friday, the diffusion of the pheromone in air was checked by analysis by gas chromatography coupled with mass spectrometer (GC/MS) and SPME (solid phase microextraction) until there was no liquid left. Then, the solution was refilled and a second study of the diffusion of the pheromone was performed.
Experimentally, the studied device was taken and placed into a closed space under identical conditions than in section E/, and for analyzing the same data.
Each measuring day, the devices were weighed and the level of the solution in the flask was controlled.

[4] = F3P PCDS direct diffusion (SPME GC/MS); conditions: 40 mL, 6 capillaries
Experimental: For this study, three diffusers each containing 40 mL of product and 6 capillaries were prepared and diffused. Every Monday, Wednesday and Friday, pheromone diffusion in the air was monitored by GC/MS and SPME (Solid Phase Micro Extraction) until no liquid remained.
Experimentally, the device studied was placed in a closed space (in our case an upturned aquarium) containing the SPME fiber. The set-up si the same as the set-up shown in Section D/above and in FIG. 24. The SPME fiber was left for 2 hours to give the molecules time to absorb onto the fiber, then the fiber was injected into the GC/MS instrument for analysis. Pheromone diffusion over time was then studied.
Same elements as in Section E/V. C. are reproduced in this section.

[5] = Indirect assay of rod diffuser solution (GC/FID); conditions: stick diffuser solution, despecified pheromone
Experimental: Solution integrity was checked at each analysis time. Before each indirect assay, the vial was weighed to visualize mass loss over time. Each vial contained six sticks. • Specifications: the solution must lose mass over time. • Result: Compliant—See FIG. 9 This is the same analytical method as for the diffuser block study, only the sample preparation differs. 1.25 g of solution were weighed into a 25 mL volumetric flask and the volume made up to the mark with acetone. The resulting solution is transferred to a 1.5 mL GC vial for analysis. This is exactly the same calibration range as for the diffuser block study.

[6] = F3 migration along the stick (top 1 cm, GC/MS); conditions: F3, five sticks
Experimental: Three devices containing 40 mL of F3 feline facial pheromone product and five […] sticks were prepared and left on diffusion. A t=1 day, T=3 days, T=10 days, T=15 days and T=22 days after preparation of the devices, one stick was taken on each device and 1 cm of the top of each stick was cut, then extracted with acetone 1 h in an ultrasonic bath and analysed by gas chromatography coupled with mass spectrometry (GC/MS). The same analytical parameters were used for the study C with a liquid injection (injected quantity: […]) Blank analysis and matrix blank analysis were also performed.

[7] = F3 block stability study in sodium stearate aqueous gel (GC-MS); conditions: after 3 months
Experimental: Aqueous sodium stearate gel is a method used by SIGNS for several of the pheromones it markets (pork, poultry, rabbit). The sodium stearate matrix is cast at high temperature (60° C.) and contains 2% pheromone. In this study, matrix samples are taken by coring, and the active ingredients are extracted by apolar solvent, using the SIGNS-validated quality control method. Extracts are analyzed by GC-MS. […] Given this observation, formula F3 cannot be used in blocks for passive diffusion, so a change of galenic formulation is necessary.

| Structure (SMILES) | % of the active ingredient in the pheromone ([1]; day 7) [%] | % of the active ingredient in the pheromone ([1]; day 14) [%] | % of the active ingredient in the pheromone ([1]; day 21) [%] | % of the active ingredient in the pheromone ([2]; day 0) [%] | % of the active ingredient in the pheromone ([2]; day 7) [%] | % of the active ingredient in the pheromone ([2]; day 14) [%] | % of the active ingredient in the pheromone ([2]; day 21) [%] | % of the active ingredient in the pheromone ([2]; day 28) [%] | intensity of direct diffusion [3] | direct diffusion over time [4] | % of the active ingredient in the pheromone ([5]; day 0) [%] | % of the active ingredient in the pheromone ([5]; day 7) [%] | % of the active ingredient in the pheromone ([5]; day 14) [%] | % of the active ingredient in the pheromone ([5]; day 21) [%] | quantity on the top of the stick over time [6] | relative quantity on the top of the stick [6] | stability in the block [7] |
| --- | --- | --- | --- | --- | --- | --- | --- | --- | --- | --- | --- | --- | --- | --- | --- | --- | --- |
| CCCCCCCC/C=C\CCCCCCCC(=O)OC [methyl oleate, methyl (Z)-octadec-9-enoate] | 31.3 | 31.5 | 32.6 | 30.4 | 30.6 | 30.6 | 30.7 | 30.7 | less intensity | increased over time | 30.8 | 30.8 | 30.7 | 30.8 | more pronounced increase of their quantities over time | major compound found on the top of the stick | remained stable |
| CCCCCCCCCCCCCCCC(=O)OC [methyl palmitate, methyl hexadecanoate] | 29.8 | 30.2 | 32.5 | 27.2 | 27.2 | 27.1 | 27.1 | 27.1 | less intensity | increased over time | 27.3 | 27.3 | 27.2 | 26.2 | more pronounced increase of their quantities over time | – | remained stable |
